Test results from ChEMBL document CHEMBL4229496, “Discovery of small molecule inhibitors of adenovirus by disrupting E3-19K/HLA-A2 interactions” (Bioorg Med Chem Lett, 2018).
pKd: −log10 of the molar value. Counter-ions that a name gives are not always drawn.

Biological target: HLA class I histocompatibility antigen, A alpha chain (Homo sapiens, UniProt P04439, D140Y/D185E/D98H/E176V/E277Q/G131W/G231S/I119V/I121R/I166T/I218V/L300P/L318F/N151K/N90K/P208A/P217A/Q86G/Q94H/R138H/R169H/T345S)
Assay: Binding affinity to human biotinylated HLA-A2 by surface plasmon resonance assay

Structure (SMILES) | pKd
COc1ccc(CCN2CCC(Nc3nc4ccccc4n3Cc3ccc(F)cc3)CC2)cc1 [ASTEMIZOLE] | 4.12 to 5.60
COc1cc2nc(N3CCN(C(=O)C4COc5ccccc5O4)CC3)nc(N)c2cc1OC (stereo unspecified) [DOXAZOSIN MESYLATE] | 4.80
O=C(CCCN1CCC(O)(c2ccc(Cl)cc2)CC1)c1ccc(F)cc1 [HALOPERIDOL] | > 5.00
O=C(c1ccc(OCCN2CCCCC2)cc1)c1c(-c2ccc(O)cc2)sc2cc(O)ccc12 [RALOXIFENE HYDROCHLORIDE] | 4.66
O=C(CCCN1CCC2(CC1)C(=O)NCN2c1ccccc1)c1ccc(F)cc1 [SPIPERONE] | 4.12 to 5.60
O=c1n(CCCN2CCN(c3cccc(Cl)c3)CC2)nc2ccccn12 [TRAZODONE HYDROCHLORIDE] | 5.60
